Experiments:
human COX-1 = molecular target: T1, human COX-1 (Homo sapiens, UniProt P23219); experiment: Whole cell COX-1 assay using CHO transfected cell line (PGE2 radioimmunoassay); format: cell-based; conditions: CHO [hCOX-1] cells; PGE2 synthesis in response to arachidonic acid
T1 construct: expressed in transfected cells; host or cells: CHO [hCOX-1], stably transfected with pCDNAIII
Protocol: Compounds are tested as inhibitors of cyclooxygenase activity in whole cell cyclooxygenase assays. These assays measure prostaglandin E2 synthesis in response to arachidonic acid, using a radioimmunoassay. Cells used for these assays are chinese hamster ovary (CHO) cell lines which have been stably transfected with an eukaryotic expression vector […] containing either the human Cox-1 or Cox-2 CDNA's. U937 cell microsomes are also used to measure Cox-1 activity.
Chinese hamster ovary (CHO) cell lines which have been stably transfected with an eukaryotic expression vector pCDNAIII containing either the human COX-1 or COX-2 cDNA's are used for the assay. These cell lines are referred to as CHO [hCOX-1] and CHO [hCOX-2], respectively. […]
Compounds of the present invention are inhibitors of cyclooxygenase-2 and are thereby useful in the treatment of cyclooxygenase-2 mediated diseases as enumerated above. […] In the assay, inhibition is determined by measuring the amount of prostaglandin E2 (PGE2) synthesized in the presence of arachidonic acid, cyclooxygenase-1 or cyclooxygenase-2 and a putative inhibitor.

Rat Paw Edema = experiment: Rat paw edema assay (carrageenan-induced); format: in vivo, Male Sprague-Dawley rats; conditions: po, 1 hr before subplantar carrageenan, paw volume measured three hr later
Protocol: Male Sprague-Dawley rats (150-200 g) are fasted overnight and are given, po, either vehicle (1% methocel or 5% Tween 80) or a test compound. One hr later, a line is drawn using a permanent marker at the level above the ankle in one hind paw to define the area of the paw to be monitored. The paw volume (V0) is measured using a plethysmometer (Ugo-Basile, Italy) based on the principle of water displacement. The animals are then injected subplantarly with […] of 1% carrageenan solution in saline (FMC Corp, Maine) into the paw using an insulin syringe with a 25-gauge needle (i.e. […] carrageenan per paw). Three hr later, the paw volume (V3) is measured and the increases in paw volume (V3 - VO) are calculated. The animals are sacrificed by CO2 asphyxiation and the absence or presence of stomach lesions scored. Data is compared with the vehicle-control values and percent inhibition calculated. All treatment groups are coded to eliminate observer bias.

T1 sequence (P23219 24-599): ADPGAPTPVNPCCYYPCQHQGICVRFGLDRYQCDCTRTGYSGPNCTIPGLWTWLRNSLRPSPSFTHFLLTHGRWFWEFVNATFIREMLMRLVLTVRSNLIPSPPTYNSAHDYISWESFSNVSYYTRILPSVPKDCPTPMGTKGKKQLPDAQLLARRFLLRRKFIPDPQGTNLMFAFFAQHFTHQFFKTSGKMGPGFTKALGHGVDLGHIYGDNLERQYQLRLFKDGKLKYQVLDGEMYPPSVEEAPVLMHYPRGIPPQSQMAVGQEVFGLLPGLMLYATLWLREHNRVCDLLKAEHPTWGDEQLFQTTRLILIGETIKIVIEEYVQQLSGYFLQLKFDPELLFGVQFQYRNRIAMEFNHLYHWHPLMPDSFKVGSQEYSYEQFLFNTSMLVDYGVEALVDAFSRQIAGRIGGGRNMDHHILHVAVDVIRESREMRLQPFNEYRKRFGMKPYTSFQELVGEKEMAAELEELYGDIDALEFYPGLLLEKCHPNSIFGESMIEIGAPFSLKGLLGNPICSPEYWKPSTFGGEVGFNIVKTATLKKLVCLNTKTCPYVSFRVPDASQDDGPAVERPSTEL

With C[C@@H](CF)COC1=C(c2ccc(S(C)(=O)=O)cc2)C(C)(C)OC1=O [Example 10, 3-(((2R)-3-Fluoro-2-methylpropyl)oxy)-5,5-dimethyl-4-(4-methylsulfonylphenyl)-5H-furan-2-one] the IC50 (human COX-1) was 100 µM and the ED50 (Rat Paw Edema) was 3.2 mg/kg.
C[C@H](CF)COC1=C(c2ccc(S(C)(=O)=O)cc2)C(C)(C)OC1=O [Example 11, 3-(((2S)-3-fluoro-2-methylpropyl)oxy)-5,5-dimethyl-4-(4-methylsulfonylphenyl)-5H-furan-2-one] was tested, and the IC50 (human COX-1) was > 50 µM and the ED50 (Rat Paw Edema) was 2.3 mg/kg.

Reference: patent EP0970067B1, “(METHYLSULFONYL)PHENYL-2-(5H)-FURANONES WITH OXYGEN LINK AS COX-2 INHIBITORS” (Merck Frosst Canada & Co., priority 1997, dated 1998)
